{"source": "patent US10125183B2", "about": "“Decoy peptides inhibiting binding of AMIGO2 and 3-phosphoinositide-dependent kinase 1” (Curacle Co., Ltd., priority 2015, dated 2018)", "key": {"HUVECs [1]": {"test_system": "HUVECs", "test": "HUVEC cell viability with or without VEGF", "type": "cell-based, human", "conditions": "serum-free starvation with or without VEGF", "method": "Endothelial progenitor cells (EPC) were isolated from human umbilical cord blood as previously described (Maeng et al., 2009). Briefly, human umbilical cord blood samples (approximately 50 mL each) were collected from fresh placentas with attached umbilical cords by gravity flow. Human umbilical vein endothelial cells (HUVECs) were isolated from human umbilical cord veins using collagenase as described previously (Marin et al., 2001), and cells from passages three to six were used. HUVECs were cultured on 2% gelatin-coated dishes at 37° C. in a 5% CO2-humidified atmosphere using M199 medium (HyClone) containing 20% fetal bovine serum (FBS), 100 U/mL penicillin, 100 μg/mL streptomycin, 3 ng/mL bFGF (Upstate Biotechnology), and 5 U/mL heparin.\n(§1) The PTD-A2 of FITC-linker-YGRKKRRQRRR-GKRVVFLEPLKDTA (SEQ ID NO: 37) (decoy peptide) and the control peptide (FITC-linker-YGRKKRRQRRR-GRVKTDFLAVPEKL (SEQ ID NO: 38)) (Con-pep) were obtained from Peptron. The experiment was performed using 5 μM concentration in vitro, 4 mg/kg was used for an animal experiment. Peptide treated HUVECs were incubated with serum-free M199 medium at 37° C."}, "Akt and PDK1": {"test_system": "Akt and PDK1", "test": "VEGF-induced Akt signaling in HUVECs", "type": "cell-based, human", "conditions": "PTD-A2-treated HUVECs", "method": "as §1"}, "B16F10 melanoma tumors": {"test_system": "B16F10 melanoma tumors", "test": "B16F10 melanoma tumor model", "type": "in vivo, mouse", "conditions": "4 mg/kg every other day", "method": "B16F10 melanoma cells (2.5×10^5 cells in 100 μl) were subcutaneously injected into the dorsal flank of 6-7 week-old mice and then PTD-Con or PTD-A2 peptide (4 mg/kg every other day) was administered by intratumoral injection after the tumor volume exceeded 100 mm^3. The size was evaluated every day, tumor samples were frozen sectioned, and stained with anti-CD31 antibody to detect the tumor vascular changes, and then examined the apoptosis bio TUNEL staining. For the TUNEL assay, an in situ cell death detection kit (Roche) was used, and sections were analyzed using a confocal microscope (LSM 700 META; Carl Zeiss)."}, "[2]": {"target": "T1, association between AMIGO2 and PDK1 (Homo sapiens, UniProt O15530)", "T1 construct": "endogenous in cells; host or cells: endothelial cells (HUVECs)", "T1 sequence (O15530 1-556)": "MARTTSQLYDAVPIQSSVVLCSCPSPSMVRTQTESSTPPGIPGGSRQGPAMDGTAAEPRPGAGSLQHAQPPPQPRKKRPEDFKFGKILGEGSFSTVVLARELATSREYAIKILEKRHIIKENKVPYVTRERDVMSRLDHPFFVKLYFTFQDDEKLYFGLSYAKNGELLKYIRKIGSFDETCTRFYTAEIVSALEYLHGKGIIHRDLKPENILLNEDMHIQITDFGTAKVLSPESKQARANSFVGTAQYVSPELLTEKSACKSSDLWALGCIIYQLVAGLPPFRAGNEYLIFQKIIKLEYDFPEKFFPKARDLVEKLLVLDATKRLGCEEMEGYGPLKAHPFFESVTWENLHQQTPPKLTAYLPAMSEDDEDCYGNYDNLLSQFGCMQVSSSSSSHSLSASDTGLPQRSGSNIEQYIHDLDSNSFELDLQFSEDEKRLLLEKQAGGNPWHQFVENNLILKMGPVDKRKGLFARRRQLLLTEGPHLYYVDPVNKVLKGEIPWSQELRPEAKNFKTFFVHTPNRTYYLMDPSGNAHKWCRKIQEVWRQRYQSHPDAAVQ", "test": "Immunoprecipitation of AMIGO2 and blotting for PDK1 in peptide-treated HUVECs", "type": "cell-based", "method": "For co-immunoprecipitation, HEK293T cells were lysed in 1 mL lysis buffer (20 mmol/L Tris/HCl pH 8.0, 2 mmol/L EDTA, 137 mmol/L NaCl, 1 mmol/L NaVO4, 1 mmol/L PMSF, 10% glycerol, and 1% Triton X-100), and were centrifuged at 14,000×g for 15 min at 4° C., and then the supernatants were immunoprecipitated with antibodies against FLAG (Sigma-Aldrich) and GFP (Santa Cruz Biotechnology) at 4° C. overnight. The immunoprecipitated proteins were obtained by using protein A-agarose beads (Upstate Biotechnology), and detected by SDS-PAGE.\nas §1"}, "PDK1 PH domain": {"target": "T2, PDK1 PH domain (Homo sapiens, UniProt O15530)", "T2 construct": "the purified His-tagged PH domain proteins were incubated with Ni^2+-NTA resins; made in house; host or cells: Escherichia coli BL21", "T2 sequence (O15530 459-550 limits assumed)": "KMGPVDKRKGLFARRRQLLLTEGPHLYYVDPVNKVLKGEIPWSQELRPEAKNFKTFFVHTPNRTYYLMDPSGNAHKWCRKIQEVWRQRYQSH", "test": "Decoy peptide binding assay (FITC-PTD-A2 with His-tagged PH domain proteins)", "conditions": "FITC-PTD-A2, PH domain proteins 0-60 μg, fluorescence", "method": "(§2) For the peptide binding assay, the purified His-tagged PH domain proteins were incubated with Ni^2+-NTA resins for 1 h, incubated in vitro with the FITC-PTD-A2 or Con-pep for 1 h, washed five times, eluted with elution buffer. The FITC level of eluted material was then measured using FLUOstar Omega (BGMLABTECH). For the peptide competition assay, the purified His tagged PH domain proteins were incubated with Ni^2+-NTA resins for 1 h, incubated in vitro with the Cytoplasm Domain protein of AMIGO2 proteins with FITC-PTD-A2 or Con-pep for 1 h, washed five times, eluted with elution buffer, and the fluorescence was measured. The FITC level of eluted material was then measured using FLUOstar Omega."}, "[3]": {"target": "T3, interaction of the CD of AMIGO2 and PH domain of PDK1 (Homo sapiens, UniProt O15530)", "T3 construct": "the purified His tagged PH domain proteins were incubated with Ni^2+-NTA resins; made in house; host or cells: Escherichia coli BL21", "T3 sequence (O15530 459-550 limits assumed)": "T2 sequence (O15530 459-550 limits assumed)", "test": "Peptide competition assay (GST-AMIGO2 CD versus peptide on His-tagged PDK1 PH)", "type": "binding", "conditions": "His-tagged PDK1 PH with GST-AMIGO2 CD and peptide, dose dependent", "method": "as §2"}, "C57BL/6 mice": {"test_system": "C57BL/6 mice", "test": "Matrigel plug angiogenesis assay", "type": "in vivo, mouse", "conditions": "25 μM peptide with VEGF 200 ng, subcutaneous, five days", "method": "Angiogenesis was evaluated as previously described (Choi et al., 2009). PBS; Matrigel™ (500 μL; BD Biosciences) mixed with PTD-A2 (25 μM), VEGF (200 ng) and heparin (10 U); and Con-pep (25 μM), VEGF (200 ng) and heparin (10 u) were each subcutaneously injected to Five- to six-week-old C57BL/6 mice. Following injection, the Matrigel™ rapidly formed a single, solid gel plug. After five days, the skin of the mouse was pulled back to expose the Matrigel™ plug, which remained intact. To quantify blood vessel formation, hemoglobin was measured using the Drabkin method and the Drabkin reagent kit 525 (Sigma-Aldrich), and immunohistochemistry was performed using anti-CD31 antibody (BD Biosciences) to identify infiltrating ECs."}, "PDK1": {"test_system": "PDK1", "test": "PDK1 localization in HUVECs after VEGF treatment (immunofluorescence)", "type": "cell-based, human", "conditions": "PTD-A2-treated HUVECs", "method": "HUVECs were fixed in 3.7% formaldehyde for 10 min and permeabilized with 0.1% Triton X-100 on the ice. Cells were labeled with anti-FAK antibody (Santa Cruz Biotechnology), anti-PDK1 antibody (Cell Signaling Technology), anti-Akt antibody (Cell Signaling Technology), and anti-AMIGO2 antibody (Abcam) for 2 h at room temperature or overnight at 4° C. Afterwards, the cells were incubated with Alexa 488 and Alexa 546 secondary antibodies (Invitrogen) for 60 min at room temperature, and were then examined under a confocal microscope (LSM 700 META; Carl Zeiss).\nas §1"}, "HUVECs [4]": {"test_system": "HUVECs", "test": "Matrigel-induced tube formation assay", "type": "cell-based, human", "conditions": "PTD-A2 treated ECs", "method": "The tube formation was assayed as previously described (Choi et al., 2009). Briefly, 250 μL of Matrigel™ (BD Biosciences) was added to a 16-mm diameter tissue culture well on the ice. HUVEC cells then ware placed on that and tube formation was confirmed. The images of the tubes were quantified using ImageJ software (National Institutes of Health)."}, "C57BL/6J mice": {"test_system": "C57BL/6J mice", "test": "Mouse model of oxygen-induced retinopathy (OIR)", "type": "in vivo", "conditions": "injected every day for five days from P12", "method": "OIR was induced in C57BL/6J mice as previously described (Connor et al., 2009). Briefly, litters of postnatal day seven (P7) C57BL/6J pups were placed in a 75% oxygen atmosphere for five days and then returned to room air at age P12. After returning to room air, the pups were injected with PBS, Con-pep and PTD-A2 every day for five days. Following the injections, crumps of non-vascular regions, vascular regions and blood vessels were detected with CD31 staining."}}}
{"substance": "FITC-linker-YGRKKRRQRRR-GKRVVFLEPLKDTA (SEQ ID NO: 37) [PTD-A2]", "values": [{"measurement": "cell viability of PTD-A2-treated HUVECs", "setting": "HUVECs [1]", "result": "dose and time-dependent inhibitory effect"}, {"measurement": "activity of both Akt and PDK1", "setting": "Akt and PDK1", "result": "reduced"}, {"measurement": "apoptotic regions of tumors (TUNEL assay)", "setting": "B16F10 melanoma tumors; compared to PBS or Con-pep groups", "result": "increased"}, {"measurement": "tumor formation", "setting": "B16F10 melanoma tumors; intratumoral injection", "result": "decreased"}, {"measurement": "tumor angiogenesis", "setting": "B16F10 melanoma tumors; intratumoral, CD31 staining", "result": "decreased"}, {"measurement": "association between AMIGO2 and PDK1 in endothelial cells", "setting": "[2]", "result": "inhibited"}, {"measurement": "binding to the PDK1 PH domain", "setting": "PDK1 PH domain", "result": "bound"}, {"measurement": "interaction of the CD of AMIGO2 and PH domain of PDK1", "setting": "[3]", "result": "inhibited"}, {"measurement": "hemoglobin contents of Matrigel plugs", "setting": "C57BL/6 mice", "result": "lower"}, {"measurement": "neovascularization in Matrigel plugs", "setting": "C57BL/6 mice", "result": "dramatic inhibition"}, {"measurement": "PDK1 localization to the plasma membrane following VEGF treatment", "setting": "PDK1", "result": "unable to move to the plasma membrane"}, {"measurement": "Matrigel-induced tube formation", "setting": "HUVECs [4]", "result": "inhibited"}, {"measurement": "avascular areas of retinas", "setting": "C57BL/6J mice", "result": "increased"}, {"measurement": "retinal hemorrhage", "setting": "C57BL/6J mice", "result": "significantly reduced"}, {"measurement": "retinal vascular areas", "setting": "C57BL/6J mice", "result": "significantly reduced"}, {"measurement": "tuft formation", "setting": "C57BL/6J mice", "result": "significantly reduced"}]}
